Assay results reported in patent EP1263420B1 (priority 2000, dated 2001).
“Also recorded” adds a separate entry of the source.

Columns and labels:
Assay type in all cases: in vivo
[1] = tested on: RARα; assay: RAR induction in lung of A/J mice exposed to isotretinoin aerosols (Western blot); settings: inhaled mid dose isotretinoin, urethane-treated A/J mice, relative to vehicle-exposed
Method: (§1) Antibodies: Polyclonal antibodies to RARα, β and γ (Santa Cruz Biotechnology Inc., San Francisco, CA) were used with a BM Chemiluminescence Western Blotting Kit (Mouse/Rabbit) (Boehringer Mannheim Corporation, Indianapolis).
(§2) Experimental Design: Five lungs each from the urethane-treated vehicle, low dose, and mid dose animals were snap frozen in liquid nitrogen and stored at -70°C for determination of RARs α, β and γ by Western Blot Analysis. In addition, five lungs each from urethane-injected unexposed mice, and untreated control mice were designated for Westerns. The lungs were homogenized and the RARs were determined by standard Western Blotting (21, 22). Due to deaths early in the high dose experiment, no lungs were available for Western Blot Analysis for the high dose exposures, i.e. all tissue was used for lesion quantitation purposes.
(§3) Samples: Lung tissue was collected, frozen on dry ice and kept at -70°C until used. A 500 mg portion was diced in small pieces and homogenized in 300 µl of cold PBS using a hand held homogenizer for 2-3 min. Samples were centrifuged at 500 rpm for 5 min or until the supernatant was clear. The pellet was suspended in 400 µl of cold Buffer A [2 µl 0.5 M EDTA, 10 µl 1 mM EGTA, 50 µl 100 mM PMSF, 10 µl 1M DTT, 10 ml (10 mM HEPES pH 7.9 + 10 mM KCl)], and left at ice temperature for 15 min. A 25 µl volume of 10% solution of NP-40 was added and the samples were mixed in a vortex vigorously for 10 sec. Samples were centrifuged at 14,000 rpm for 1 min at 4°C and the pellet was treated once more in this fashion. The supernatant was removed and 25 - 100 µl of Buffer C [4 µl 0.5 M EDTA, 20 µl 100 mM EGTA, 20 µl 0.1 M PMSF, 2 µl 1 M DTT, 2 ml (20 mM HEPES pH 7.9 + 0.4M NaCl)] was added. Pellets were resuspended by tapping gently on the bottom of the Eppendorf tube. Samples were rocked vigorously in a bucket of ice on an orbitor shaker for 30 min. Samples were centrifuged at 14,000 rpm for 5 min at 4°C. Supematants were kept frozen at -70°C until needed. Protein concentration determination was conducted by the Bradford method (23). […]

[2] = tested on: RARβ; assay: as above; settings: inhaled mid dose isotretinoin, urethane-treated A/J mice, relative to vehicle-exposed
Method: as §1, §2, §3

[3] = tested on: RARγ; assay: as above; settings: inhaled mid dose isotretinoin, urethane-treated A/J mice, relative to vehicle-exposed
Method: as §1, §2, §3

[4] = tested on: Lung Tumorigenesis; assay: Lung tumorigenesis inhibition by inhaled isotretinoin in carcinogen-treated A/J mice; settings: for reductions of tumor multiplicity (non-significant): low dose; for reductions in multiplicity of tumor nodules: mid isotretinoin dose
Description: The A/J mouse is a well-established animal model for preclinical chemoprevention studies. This strain has a hereditary predisposition for lung cancer, the so-called pulmonary adenoma susceptibility (Pas) genes. A strong candidate for one of these genes, Pas-1, is the K-ras protooncogene. Carcinogenesis in this model with NNK as the inciting agent has been studied so that the times required to develop hyperplastic areas, adenomas, and carcinomas are well known. In addition, the timing of molecular changes associated with carcinogenesis has been studied and are similar to those in humans. In both species, K-ras mutations are common early events.
Within 24 h of the last inhalation exposure, animals were euthanized by intraperitoneal injection of pentobarbital and their lungs were removed and fixed in Bouin's solution or flash frozen for RAR determination. The lungs were evaluated in a blinded fashion so that neither carcinogen nor isotretinoin dose levels were known to the evaluator, who visually counted hyperplastic areas and adenomas on the lung pleural surface as previously described The significance of the differences between the mean tumor incidence of the treatment and the control groups was determined using the Mann-Whitney Rank Sum test (Statmost TM, DataMost Corp., Sandy, Utah).

For `CC1=C(/C=C/C(C)=C/C=C/C(C)=C\C(=O)O)C(C)(C)CCC1` [13-cis RA, 13-cis-Retinoic Acid], the “upregulated lung tissue RAR α over solvent” value [1] was 3.9 fold, the “upregulated lung tissue RAR β over solvent” value [2] was 3.3 fold and the “upregulated lung tissue RAR γ over solvent” value [3] was 3.7 fold. The “reductions of tumor multiplicity (non-significant)” value ([4]; BaP treated mice, p<0.13) was 30%, the “reductions of tumor multiplicity (non-significant)” value ([4]; NNK treated mice, p<0.30) was 16% and the “effect on numbers of tumors” value ([4]; low isotretinoin dose) was “not affected by treatment at the 95% confidence level; also recorded: not significantly effective”. The “reductions in multiplicity of tumor nodules” value ([4]; BaP-treated mice) was 67% and the “reductions in multiplicity of tumor nodules” value ([4]; NNK-treated mice) was 88%.
